From publication PMC5244392, “Interspecies cathelicidin comparison reveals divergence in antimicrobial activity, TLR modulation, chemokine induction and regulation of phagocytosis” (Scientific Reports, 2017)

Legend:
E. coli O78 = assay: Sytox green membrane leakage assay; format: cell-based, Escherichia coli; conditions: 30 min at 37 °C, MHB or DMEM + FCS, peptide 0.31-20 μM; N = 3
Experimental: Peptide dilutions and bacteria suspensions were prepared as described above for testing the antimicrobial activity in the Bioscreen C analyzer. Peptide dilutions and bacteria were mixed 1:1 and incubated for 30 minutes at 37 °C. Next, bacteria were washed once with PBS and transferred to black 96-wells assay plates (Corning, OH, USA). Bacteria were incubated with […] sytox green (Life technologies) (λex 504 nm and λem 523 nm) for 5 minutes after which fluorescence was measured using a FLUOstar Omega microplate reader (BMG Labtech GmbH, Ortenberg, Germany).
The capacity of peptides to induce membrane leakage was tested using the permeability marker sytox green. […] For MRSA, fluorescence levels were generally very low even at >Cmax levels, hampering a good comparison between growth delay and permeabilization for this strain.
Supplementary Figure 2: Bacterial membrane leakage
E. Coli O78 and MRSA (1x10^6 CFU/ml) were grown in MHB or DMEM+FCS for 30 minutes at 37°C in the presence of diﬀerent concentrations of cathelicidins (0.31 µM, 0.63 µM, 1.25 µM, 2.5 µM, 5 µM, 10 µM, and 20 µM), after which the cells were stained with sytox green to measure membrane leakage. E. Coli in MHB, dark green line; E. Coli in DMEM, light green line; MRSA in MHB, dark blue line; MRSA in DMEM, light blue line. Results are presented as average +/- SEM (N = 3).
Peptide concentration (µ M) […]

[1] = tested on: E. coli ATCC 25922 and S. aureus ATCC 29213; assay: Bacterial growth delay, additional strains (Supplementary Fig. S1); format: cell-based, Escherichia coli; Staphylococcus aureus; conditions: E. coli ATCC 25922 and S. aureus ATCC 29213 compared with E. coli O78 and MRSA; MHB or DMEM + FCS; N = 2
Experimental: E. coli O78 (Zoetis Animal Health, Kalamazoo, MI, USA), E. coli ATCC 25922, Staphylococcus aureus ATCC 29213, and methicillin resistant Staphylococcus aureus (MRSA) (WKZ-2, human clinical isolate) were grown overnight from a glycerol stock in Mueller Hinton Broth (MHB) (Becton Dickinson, USA). Before use, bacteria were grown to mid-log phase in MHB for 2 hours at 37 °C, 200 RPM. Murine RAW264.7 macrophages (ATCC-TIB-71) were obtained from the American Type Culture Collection (ATCC, Manassas, VA, USA) and cultured in DMEM (41966-029; Thermo Fisher Scientific, Waltham, MA, USA) supplemented with 10% FCS (Bodinco B.V., Alkmaar, the Netherlands) (DMEM + FCS) at 37 °C, 5.0% CO2. […]
Peptides (0.63 to 40 μM) and bacteria mid-log cultures (2 * 10^6 CFU/ml) were prepared in MHB or DMEM + FCS and mixed (100 μl peptide + 100 μl bacterial culture) in a Bioscreen C analyzer plate (Oy Growth Curves Ab Ltd, Helsingfors, Finland). […] The OD was measured every 15 minutes using a wideband filter (450–580 nm) to measure bacterial growth. The time needed grow above an OD of 0.6 was determined for all concentrations. […]
E. coli ATCC 25922 and S. aureus ATCC 29213 (1x10^6 CFU/ml) were grown in MHB or DMEM+FCS for 16 hours under constant shak ing (200 RPM) in the presence of diﬀerent concentration of cathelicidins (0.31 µM, 0.63 µM, 1.25 µM, 2.5 µM, 5 µM, 10 µM, and 20 µM). The OD was measured ever y 15 minutes. […]

With “RRRPRPPYLPRPRPPPFFPPRLPPRIPPGFPPRFPPRFP [PR-39, porcine proline-rich cathelicidin forming a polyproline helix, 39 residues, charge +10]” the “Membrane permeability (sytox green fluorescence), in words” value (E. coli O78) was “minimal permeability” and the “Fold difference in Cmax with other bacterial strains” value [1] was 8–16 fold.
